Experimental findings from paper PMC9407119, “Improving the Specific Activity and Thermostability of Psychrophilic Xylosidase AX543 by Comparative Mutagenesis” (Foods, 2022) are described below.

Structures are written as SMILES.

Assay in all cases: pNP release at […] nm, Lineweaver-Burk
What all share (settings): McIlvaine buffer, pH 6.0, 20 °C, 5 min, pNPX 0.1 to 2 mM

The test system of one assay is T1, R4.
T1 construct: gene AX543; pET-28a(+), E. coli BL21(DE3), purified
Type of assay: biochemical, Acremonium sp. WCQ6A; Humicola insolens.

For the next assay, the system named is T2, R6.
T2 construct: gene AX543; pET-28a(+), E. coli BL21(DE3), purified
The assay is classed as biochemical, Humicola insolens; Acremonium sp. WCQ6A.

The next assay relates to T3, R5.
T3 construct: gene AX543; pET-28a(+), E. coli BL21(DE3), purified
The assay is classed as biochemical, Acremonium sp. WCQ6A; Humicola insolens.

A further assay deals with T4, R8.
T4 construct: gene Xyl43A; Xyl43A with segment A3 (D161-K231) of AX543; pET-28a(+), E. coli BL21(DE3), purified
Type of assay: biochemical, Humicola insolens; Acremonium sp. WCQ6A.

For a further assay, the system named is T5, R3.
T5 construct: gene AX543; pET-28a(+), E. coli BL21(DE3), purified
Type of assay: biochemical, Acremonium sp. WCQ6A; Humicola insolens.

For another assay, the system named is T6, R9.
T6 construct: gene Xyl43A; Xyl43A with segment A2 (T68-G160) of AX543; pET-28a(+), E. coli BL21(DE3), purified
Type of assay: biochemical, Humicola insolens; Acremonium sp. WCQ6A.

For the next assay, the system named is T7, R1.
T7 construct: gene AX543; pET-28a(+), E. coli BL21(DE3), purified
Type of assay: biochemical, Acremonium sp. WCQ6A; Humicola insolens.

In a further assay the test system is T8, R2.
T8 construct: gene AX543; pET-28a(+), E. coli BL21(DE3), purified
The assay is classed as biochemical, Acremonium sp. WCQ6A; Humicola insolens.

A further assay has as its system T9, R10.
T9 construct: gene AX543; Xyl43A with segment A1 (M1-K67) of AX543 at the N-terminus; pET-28a(+), E. coli BL21(DE3), purified
Type of assay: biochemical, Humicola insolens; Acremonium sp. WCQ6A.

For another assay, the system named is T10, R7.
T10 construct: gene Xyl43A; Xyl43A with segment A4 (H232-D324) of AX543 at the C-terminus; pET-28a(+), E. coli BL21(DE3), purified
The assay is classed as biochemical, Humicola insolens; Acremonium sp. WCQ6A.

Broadly, the Km is the concentration of substrate that gives half-maximal velocity. Consider `O=[N+]([O-])c1ccc(O[C@@H]2OC[C@@H](O)[C@H](O)[C@H]2O)cc1` [4-nitrophenyl-β-D-xylopyranoside], for which the Km in the assay on R4 is 1840 ± 106 µM; in the assay on R6 it was 1190 ± 34 µM; in the assay on R5 it was 1210 ± 56 µM; in the assay with R8, 1300 ± 192 µM; with R3, 1000 ± 25 µM; in the assay on R9 it was 1320 ± 59 µM. Moreover, the Km with R1 amounted to 1250 ± 48 µM; in the assay on R2 it was 1170 ± 33 µM; in the assay with R10, 1870 ± 44 µM; in the assay on R7 it was 1630 ± 60 µM.
